From patent US20080124407A1, “INHIBITING CYP3A4 INDUCTION” (UNIVERSITY OF WASHINGTON, priority 2006, published 2008)
Like-named read-outs stand apart in the source and are kept apart here.

Key:
[1] = target: T1, SXR (Homo sapiens, UniProt O75469); test: Transient transfection luciferase assay, full-length SXR with CYP3A4-luc reporter in HepG2 cells; conditions: for inhibitory activity toward SXR function (SFN analogs): 24 hrs
T1 sequence (O75469 1-434): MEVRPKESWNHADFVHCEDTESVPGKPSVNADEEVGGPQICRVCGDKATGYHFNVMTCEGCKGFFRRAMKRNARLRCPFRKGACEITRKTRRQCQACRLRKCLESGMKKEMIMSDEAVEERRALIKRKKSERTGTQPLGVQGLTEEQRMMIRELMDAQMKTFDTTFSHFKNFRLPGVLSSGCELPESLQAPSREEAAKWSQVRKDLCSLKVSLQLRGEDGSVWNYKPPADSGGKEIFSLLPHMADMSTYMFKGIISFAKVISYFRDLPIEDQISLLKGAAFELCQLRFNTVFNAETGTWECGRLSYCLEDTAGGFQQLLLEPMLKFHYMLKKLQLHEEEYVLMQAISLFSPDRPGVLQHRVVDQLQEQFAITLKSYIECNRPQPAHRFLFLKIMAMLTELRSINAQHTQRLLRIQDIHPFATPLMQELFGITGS

[2] = target: mouse PXR (Mus musculus, UniProt O54915); conditions: 10 μM SFN
[3] = test system: human hepatocytes; conditions: pretreatment with 50 μM SFN; cited from earlier work
[4] = test system: CYP3A4; conditions: hepatocytes
[5] = test system: NQO1; conditions: human primary hepatocytes, 10 or 25 μM SFN, 48 h
[6] = target: PPARα (Homo sapiens, UniProt Q07869); conditions: 10 μM SFN
[7] = test system: NQO1; conditions: LS180 cells, 10 or 25 μM SFN, 48 h
[8] = target: rat PXR (Rattus norvegicus, UniProt Q9R1A7); conditions: 10 μM SFN
[9] = human subjects who ingest SFN in a broccoli soup; cited from earlier work
[10] = test system: UGT1A1; test: UGT1A1 gene expression by QRT-PCR; format: cell-based, human
[11] = test system: CYP3A4; conditions: LS180 cells, SFN 24 hrs pre-treatment
[12] = target: CYP3A4 (Homo sapiens, UniProt P08684); conditions: concentrations as high as 50 μM; cited from earlier work
[13] = target: GAL4-SXR (Homo sapiens, UniProt O75469); test: cell-based
[14] = test system: NQO1 and Glutamate Cysteine Ligase (both GCLM and GCLC); conditions: 10 or 50 μM SFN, 48 hrs
[15] = test system: CYP3A4; conditions: for average CYP3A4 mRNA levels relative to the solvent control: 48 hrs
[16] = test system: rat CYP3A; conditions: in vivo; cited from earlier work
[17] = target: human SXR ligand binding domain (Homo sapiens, UniProt O75469); test: biochemical
[18] = target: VDR (Homo sapiens, UniProt P11473); conditions: 10 μM SFN
[19] = target: SXR / SRC-1 interaction (Homo sapiens, UniProt O75469); conditions: 10 μM RIF
[20] = target: PPARγ (Homo sapiens, UniProt P37231); conditions: 10 μM SFN
[21] = test system: MDR1 (ABCB1); conditions: LS180 cells
[22] = target: CAR (Homo sapiens, UniProt Q14994); conditions: 10 μM SFN
[23] = target: SXR / PBP interaction (Homo sapiens, UniProt O75469); conditions: 10 μM RIF
[24] = target: T2, VP16-SXR (human, UniProt O75469 1-434); test: mammalian two-hybrid in HepG2 cells (GAL4 reporter, VP16-SXR, GAL-ACTR), with rifampicin
T2 construct: also called steroid and xenobiotic receptor; pregnane X receptor
T2 sequence: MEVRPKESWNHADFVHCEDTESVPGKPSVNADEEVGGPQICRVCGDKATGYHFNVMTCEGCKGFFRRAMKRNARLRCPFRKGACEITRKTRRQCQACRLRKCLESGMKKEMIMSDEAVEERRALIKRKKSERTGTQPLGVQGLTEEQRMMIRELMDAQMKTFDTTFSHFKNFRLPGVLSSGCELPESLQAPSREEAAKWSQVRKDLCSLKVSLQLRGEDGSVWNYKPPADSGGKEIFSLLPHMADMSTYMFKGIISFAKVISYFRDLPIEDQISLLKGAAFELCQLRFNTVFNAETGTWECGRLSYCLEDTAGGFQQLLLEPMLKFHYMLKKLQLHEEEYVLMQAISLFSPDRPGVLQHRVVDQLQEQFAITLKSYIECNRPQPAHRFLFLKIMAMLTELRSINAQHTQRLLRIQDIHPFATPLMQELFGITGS

[25] = target: T2, VP16-SXR; test: mammalian two-hybrid in HepG2 cells (GAL4 reporter, VP16-SXR, GAL-TIF2), with rifampicin

Sequence of mouse PXR (O54915 143-430 limits assumed): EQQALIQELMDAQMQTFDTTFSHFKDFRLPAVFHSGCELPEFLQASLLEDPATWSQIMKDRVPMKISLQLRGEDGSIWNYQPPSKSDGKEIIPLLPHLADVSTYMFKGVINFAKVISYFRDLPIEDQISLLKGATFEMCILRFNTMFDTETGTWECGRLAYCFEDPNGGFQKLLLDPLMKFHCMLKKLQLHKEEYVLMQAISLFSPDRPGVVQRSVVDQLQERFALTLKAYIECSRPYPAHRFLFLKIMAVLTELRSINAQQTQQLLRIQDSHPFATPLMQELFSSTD
Sequence of VDR (P11473 127-423 limits assumed, species assumed): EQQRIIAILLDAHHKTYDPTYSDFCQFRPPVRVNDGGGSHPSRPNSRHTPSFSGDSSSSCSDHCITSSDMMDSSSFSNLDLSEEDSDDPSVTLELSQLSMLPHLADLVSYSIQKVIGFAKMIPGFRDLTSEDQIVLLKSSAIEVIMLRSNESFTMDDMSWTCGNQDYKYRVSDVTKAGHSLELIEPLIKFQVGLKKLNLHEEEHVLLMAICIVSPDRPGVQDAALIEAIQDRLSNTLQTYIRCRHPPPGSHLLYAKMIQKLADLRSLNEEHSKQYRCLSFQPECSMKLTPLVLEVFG
Sequence of PPARγ (P37231 238-503 limits assumed, species assumed): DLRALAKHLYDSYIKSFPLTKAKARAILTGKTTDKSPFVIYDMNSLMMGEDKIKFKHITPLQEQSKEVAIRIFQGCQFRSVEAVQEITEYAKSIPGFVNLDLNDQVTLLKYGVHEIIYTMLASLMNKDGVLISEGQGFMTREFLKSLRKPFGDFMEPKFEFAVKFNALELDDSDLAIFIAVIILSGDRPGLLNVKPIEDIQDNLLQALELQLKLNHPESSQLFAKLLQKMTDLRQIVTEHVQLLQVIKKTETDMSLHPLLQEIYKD
Sequence of rat PXR (Q9R1A7 143-430 limits assumed): as the sequence (O54915 143-430 limits assumed) above, with G36D, F42V, R61S, L68V, Y118H, D121E, H191R, K192E, S272T counted along it
Sequence of CAR (Q14994 109-352 limits assumed): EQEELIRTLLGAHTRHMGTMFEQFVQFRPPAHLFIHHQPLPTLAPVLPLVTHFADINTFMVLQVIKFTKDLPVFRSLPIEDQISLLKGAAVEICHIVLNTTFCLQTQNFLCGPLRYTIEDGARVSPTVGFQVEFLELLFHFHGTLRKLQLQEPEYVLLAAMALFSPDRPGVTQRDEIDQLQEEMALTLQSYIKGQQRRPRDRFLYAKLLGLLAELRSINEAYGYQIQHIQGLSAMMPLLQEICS
Sequence of PPARα (Q07869 239-466 limits assumed, species assumed): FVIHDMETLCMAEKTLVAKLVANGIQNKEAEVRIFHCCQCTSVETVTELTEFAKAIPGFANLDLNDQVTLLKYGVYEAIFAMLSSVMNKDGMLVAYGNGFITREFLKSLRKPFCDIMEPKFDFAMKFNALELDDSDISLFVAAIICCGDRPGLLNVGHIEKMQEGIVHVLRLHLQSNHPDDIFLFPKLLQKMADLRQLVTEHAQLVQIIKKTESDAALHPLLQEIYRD
Sequence of CYP3A4 (Homo sapiens, UniProt P08684) (P08684 whole entry, the tested form may be a part): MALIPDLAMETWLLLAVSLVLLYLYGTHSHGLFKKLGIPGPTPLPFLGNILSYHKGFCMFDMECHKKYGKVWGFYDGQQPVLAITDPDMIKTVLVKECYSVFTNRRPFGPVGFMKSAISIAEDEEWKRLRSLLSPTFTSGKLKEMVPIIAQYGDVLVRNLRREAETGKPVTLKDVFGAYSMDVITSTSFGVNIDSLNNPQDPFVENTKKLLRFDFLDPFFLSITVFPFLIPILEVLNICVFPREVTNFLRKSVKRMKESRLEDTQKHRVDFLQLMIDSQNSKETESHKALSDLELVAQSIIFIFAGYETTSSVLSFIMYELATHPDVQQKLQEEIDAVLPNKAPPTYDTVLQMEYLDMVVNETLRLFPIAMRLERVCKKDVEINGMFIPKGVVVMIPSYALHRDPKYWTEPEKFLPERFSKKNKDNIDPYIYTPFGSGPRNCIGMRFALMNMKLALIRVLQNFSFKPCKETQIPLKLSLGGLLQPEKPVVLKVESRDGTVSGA

## S=C=NCCc1ccccc1 [PEITC, reference compound]
[1]; 10 μM RIF, compared with SFN
  inhibitory activity toward SXR function (SFN analogs): substantial loss of the inhibitory effect

## C[S+]([O-])CCCN=C=S (stereo not drawn) [Iberin]
[1]; 10 μM RIF, compared with SFN
  inhibitory activity toward SXR function (SFN analogs): little effect on inhibitory potency

## C[S+]([O-])CCCCN=C=S (stereo not drawn) [SFN, 4-methylsulfinylbutyl isothiocyanate]
[2]
  activity as activating ligand of mPXR: nor did it serve as an activating ligand
  inhibition of ligand activation of mPXR: did not inhibit ligand activation
[3]
  decrease in DNA adduction of aflatoxin B1: > 90%
[4]
  effect on basal level of CYP3A4 expression: significantly reduced the basal level
[5]
  induction of NQO1: significantly induced
[6]
  activity as activating ligand of PPARα: nor did it serve as an activating ligand
  inhibition of ligand activation of PPARα: did not inhibit ligand activation
[7]
  induction of NQO1: significantly induced
[8]
  activity as activating ligand of rPXR: nor did it serve as an activating ligand
  inhibition of ligand activation of rPXR: did not inhibit ligand activation
[9]
  peak plasma concentration of unconjugated SFN: 4 to 5 µM
[10]
  effect on UGT1A1 gene expression: induced UGT1A1 gene expression
[11]
  reduction in RIF- and RU486-mediated induction of CYP3A4: dose-related reduction
[12]
  direct inhibition of CYP3A4 catalytic activity: not a direct inhibitor
[13]
  IC50: 14 µM
[1]
  IC50: ~12 µM
[1]; 10 μM RIF or RU486, dose-dependent
  inhibition of RIF and RU486 induced reporter activities: significantly inhibited
[1]; 25 μM SFN, 10 μM RIF
  inhibition of RIF induced SXR reporter activity: blocked most of the RIF induced SXR reporter activity
[1]; HepG2, RIF or RU486 induced
  concentration as low as which SXR reporter activity was inhibited: 1000 nM
[14]
  mRNA levels of detoxification enzymes including NQO1, GCLM and GCLC: increased mRNA levels
[15]; 10 μM SFN
  average CYP3A4 mRNA levels relative to the solvent control: 69%
[15]; 25 μM SFN
  average CYP3A4 mRNA levels relative to the solvent control: 20%
[15]; 50 μM SFN
  average CYP3A4 mRNA levels relative to the solvent control: 13%
[15]; single individuals
  CYP3A4 responses in single individuals, lowest, of the solvent control: 2%
[16]
  inhibition of rat CYP3A gene expression: did not inhibit rat CYP3A gene expression
[17]
  Ki: 16 µM
[18]
  activity as activating ligand of VDR: nor did it serve as an activating ligand
  inhibition of ligand activation of VDR: did not inhibit ligand activation
[19]
  inhibition of RIF induced SRC-1 recruitment to SXR: inhibited RIF induced SRC-1 and PBP recruitment to SXR in a dose dependent manner
[20]
  activity as activating ligand of PPARγ: nor did it serve as an activating ligand
  inhibition of ligand activation of PPARγ: did not inhibit ligand activation
[21]
  inhibition of RIF or RU486 induced expression of MDR1 (ABCB1): inhibited RIF or RU486 induced expression of MDR1
[22]
  activity as activating ligand of CAR: nor did it serve as an activating ligand
  inhibition of ligand activation of CAR: did not inhibit ligand activation
[23]
  inhibition of RIF induced PBP recruitment to SXR: inhibited RIF induced SRC-1 and PBP recruitment to SXR in a dose dependent manner

## CS(=O)(=O)CCCN=C=S [Cheirolin]
[1]; 10 μM RIF, low concentration, compared with SFN
  inhibitory effect toward SXR function at low concentration: less potent at low concentration

## CC#C[C@]1(O)CC[C@H]2[C@@H]3CCC4=CC(=O)CCC4=C3[C@@H](c3ccc(N(C)C)cc3)C[C@@]21C [RU486, mifepristone, reference compound]
[10]
  effect on UGT1A1 gene expression: slightly induced

## C[S+]([O-])CCCCC#N (stereo not drawn) [SFN-nitrile, reference compound]
[1]; 10 μM RIF, compared with SFN
  inhibitory activity toward SXR function (SFN analogs): no inhibitory activity

B1: GAL4 DNA-binding domain linked to the receptor interaction domains of activator of thyroid and retinoic acid receptor (GAL-ACTR) (other)
chain: MKLLSSIEQACDICRLKKLKCSKEKPKCAKCLKNNWECRYSPKTKRSPLTRAHLTEVESRLERLEQLFLLIFPREDLDMILKMDSLQDIKALLTGLFVQDNVNKDAVTDRLASVETDMPLTLRQHRISATSSSEESSNKGQRQLTVSESSVEGAENQRGPLESKGHKKLLQLLTCSSDDRGHSSLTNSPLDSSCKESSVSVTSPSGVSSSTSGGVSSTSNMHGSLLQEKHRILHKLLQNGNSPAEVAKITAEATGKDTSSITSCGDGNVVKQEQLSPKKKENNALLRYLLDRDDPSDALSKELQPQVEGVDNKMSQCTSSTIPSSSQEKDPKIKTE
[24]
  binding result: no binding (tested: 10 µM RIF)

B2: GAL4 DNA-binding domain linked to the receptor interaction domains of transcriptional intermediary factor (GAL-TIF2) (other)
chain: MKLLSSIEQACDICRLKKLKCSKEKPKCAKCLKNNWECRYSPKTKRSPLTRAHLTEVESRLERLEQLFLLIFPREDLDMILKMDSLQDIKALLTGLFVQDNVNKDAVTDRLASVETDMPLTLRQHRISATSSSEESSNKGQRQLTVSQNSPVNMNPPPLSKMGSLDSKDCFGLYGEPSEGTTGQAESSCHPGEQKETNDPNLPPAVSSERADGQSRLHDSKGQTKLLQLLTTKSDQMEPSPLASSLSDTNKDSTGSLPGSGSTHGTSLKEKHKILHRLLQDSSSPVDLAKLTAEATGKDLSQESSSTAPGSEVTIKQEPVSPKKKENALLRYLLDKDDTKDIGLPEITPKLERLDSKTDPASNTKLIAMKTEKEE
[25]
  binding result: no binding (tested: 10 µM RIF)
